Measured values: patent US20040266623A1, “SYNERGISTIC QUINCLORAC HERBICIDAL COMPOSITIONS” (priority 2003, published 2004)

Legend:
Assay in all cases: Greenhouse pot test, postemergent spray, visual control rating converted to percent control
Type in all cases: in vivo
white clover = system: white clover
Method: (§1) Pots of crabgrass, dandelion, white clover, and plantain grown in greenhouse soiless growth media were sprayed with a greenhouse pot sprayer at 43.46 gallons of spray solution/acre and allowed to stand in the greenhouse. Visual observation of the effects made by the herbicidal compositions on the plants in the test pots was recorded for control of crabgrass, dandelion, clover and plantain at 24 hours after treatment (HAT), 48 hours after treatment (HAT), 72 hours after treatment (HAT), 7 days after treatment (DAT), 14 days after treatment (DAT) and 21 days after treatment (DAT). A control rating scale of 1 to 9 was used to record the visual observation of the effect of the herbicidal composition on the plants over the time period of the tests. 1=no control, and 9=death of plant, with intervening numbers representing successive degrees of observed effectiveness of the herbicidal composition over time. The 1-9 control rating scale was converted to percent control in the test data charts that follow.
(§2) The test protocol of S. R. Colby as set out in his article entitled “Calculating Synergistic and Antagonistic Responses of Herbicide Compositions,” received for publication Apr. 11, 1966, Contribution No. 3796 and Scientific Article No. 1271 of the Maryland Agricultural Experiment Station, Department pf Agronomy, University of Maryland was followed to evaluate the synergistic properties of the combination of quinclorac plus a herbicidal protox inhibitor, and a combination of quinclorac, plus a herbicidal protox inhibitor plus a herbicidal auxinic agent as compared with the individual herbicides, using Colby's formulas E=X+Y−XY/100 for a two herbicide combination, where E=the expected percent of inhibition of growth by herbicides, X=the percent inhibition of growth by herbicide A at p lb/A, and Y=the percent inhibition of growth by herbicide B at q lb/A, for a given combination of two herbicides. Colby's formula E=X+Y+Z−(XY+XZ+YZ)/100+XYZ/10,000, was used for the three-way herbicide combination evaluation, where E, X and Y are the same as in the two herbicide formula and Z=the percent inhibition of growth by the third herbicide.

crabgrass = system: crabgrass
Method: as §1, §2

dandelion = system: dandelion
Method: as §1, §2

plantain = system: plantain
Method: as §1, §2

[1] = Test 3, 7 DAT, scale 1=no control, 9=death of plant
[2] = Test 3, 14 DAT, scale 1=no control, 9=death of plant
[3] = Test 3, 21 DAT, scale 1=no control, 9=death of plant
[4] = Test 3, 24 HAT, scale 1=no control, 9=death of plant
[5] = Test 3, 72 HAT, scale 1=no control, 9=death of plant
[6] = Test 4, 24 HAT, scale 1=no control, 9=death of plant
[7] = Test 4, 72 HAT, scale 1=no control, 9=death of plant

Structure (SMILES): Cc1nn(-c2cc(CC(Cl)C(=O)O)c(Cl)cc2F)c(=O)n1C(F)F (stereo not shown) [Carfentrazone]
- % Control Clover (white clover; Test 1, 7 DAT, 0.01 lbs/A): 66.7%
- Control (1-9) Clover (white clover; Test 1, 7 DAT, 0.01 lbs/A): 6
- % Control Clover (white clover; Test 1, 7 DAT, 0.02 lbs/A): 66.7%
- Control (1-9) Clover (white clover; Test 1, 7 DAT, 0.02 lbs/A): 6
- % Control Clover (white clover; Test 1, 14 DAT, 0.01 lbs/A): 77.8%
- Control (1-9) Clover (white clover; Test 1, 14 DAT, 0.01 lbs/A): 7
- % Control Clover (white clover; Test 1, 14 DAT, 0.02 lbs/A): 100.0%
- Control (1-9) Clover (white clover; Test 1, 14 DAT, 0.02 lbs/A): 9
- % Control Clover (white clover; Test 1, 24 HAT, 0.01 lbs/A): 33.3%
- Control (1-9) Clover (white clover; Test 1, 24 HAT, 0.01 lbs/A): 3
- % Control Clover (white clover; Test 1, 24 HAT, 0.02 lbs/A): 33.3%
- Control (1-9) Clover (white clover; Test 1, 24 HAT, 0.02 lbs/A): 3
- % Control Clover (white clover; Test 1, 48 HAT, 0.01 lbs/A): 55.6%
- Control (1-9) Clover (white clover; Test 1, 48 HAT, 0.01 lbs/A): 5
- % Control Clover (white clover; Test 1, 48 HAT, 0.02 lbs/A): 55.6%
- Control (1-9) Clover (white clover; Test 1, 48 HAT, 0.02 lbs/A): 5
- % Control Clover (white clover; Test 4, 7 DAT, 0.01 lbs/A): 66.7%
- Control (1-9) Clover (white clover; Test 4, 7 DAT, 0.01 lbs/A): 6
- % Control Clover (white clover; Test 4, 7 DAT, 0.02 lbs/A): 77.8%
- Control (1-9) Clover (white clover; Test 4, 7 DAT, 0.02 lbs/A): 7
- % Control Clover (white clover; Test 4, 14 DAT, 0.01 lbs/A): 66.7%
- Control (1-9) Clover (white clover; Test 4, 14 DAT, 0.01 lbs/A): 6
- % Control Clover (white clover; Test 4, 14 DAT, 0.02 lbs/A): 88.9%
- Control (1-9) Clover (white clover; Test 4, 14 DAT, 0.02 lbs/A): 8
- % Control Crabgrass (crabgrass; Test 1, 7 DAT, 0.01 lbs/A): 77.8%
- Control (1-9) Crabgrass (crabgrass; Test 1, 7 DAT, 0.01 lbs/A): 7
- % Control Crabgrass (crabgrass; Test 1, 7 DAT, 0.02 lbs/A): 77.8%
- Control (1-9) Crabgrass (crabgrass; Test 1, 7 DAT, 0.02 lbs/A): 7
- % Control Crabgrass (crabgrass; Test 1, 14 DAT, 0.01 lbs/A): 33.3%
- Control (1-9) Crabgrass (crabgrass; Test 1, 14 DAT, 0.01 lbs/A): 3
- % Control Crabgrass (crabgrass; Test 1, 14 DAT, 0.02 lbs/A): 33.3%
- Control (1-9) Crabgrass (crabgrass; Test 1, 14 DAT, 0.02 lbs/A): 3
- % Control Crabgrass (crabgrass; Test 1, 24 HAT, 0.01 lbs/A): 22.2%
- Control (1-9) Crabgrass (crabgrass; Test 1, 24 HAT, 0.01 lbs/A): 2
- % Control Crabgrass (crabgrass; Test 1, 24 HAT, 0.02 lbs/A): 33.3%
- Control (1-9) Crabgrass (crabgrass; Test 1, 24 HAT, 0.02 lbs/A): 3
- % Control Crabgrass (crabgrass; Test 1, 48 HAT, 0.01 lbs/A): 33.3%
- Control (1-9) Crabgrass (crabgrass; Test 1, 48 HAT, 0.01 lbs/A): 3
- % Control Crabgrass (crabgrass; Test 1, 48 HAT, 0.02 lbs/A): 55.6%
- Control (1-9) Crabgrass (crabgrass; Test 1, 48 HAT, 0.02 lbs/A): 5
- % Control Crabgrass (crabgrass; Test 4, 7 DAT, 0.01 lbs/A): 55.6%
- Control (1-9) Crabgrass (crabgrass; Test 4, 7 DAT, 0.01 lbs/A): 5
- % Control Crabgrass (crabgrass; Test 4, 7 DAT, 0.02 lbs/A): 55.6%
- Control (1-9) Crabgrass (crabgrass; Test 4, 7 DAT, 0.02 lbs/A): 5
- % Control Crabgrass (crabgrass; Test 4, 14 DAT, 0.01 lbs/A): 55.6%
- Control (1-9) Crabgrass (crabgrass; Test 4, 14 DAT, 0.01 lbs/A): 5
- % Control Crabgrass (crabgrass; Test 4, 14 DAT, 0.02 lbs/A): 55.6%
- Control (1-9) Crabgrass (crabgrass; Test 4, 14 DAT, 0.02 lbs/A): 5
- % Control Dandelion (dandelion; Test 1, 7 DAT, 0.01 lbs/A): 88.9%
- Control (1-9) Dandelion (dandelion; Test 1, 7 DAT, 0.01 lbs/A): 8
- % Control Dandelion (dandelion; Test 1, 7 DAT, 0.02 lbs/A): 88.9%
- Control (1-9) Dandelion (dandelion; Test 1, 7 DAT, 0.02 lbs/A): 8
- % Control Dandelion (dandelion; Test 1, 14 DAT, 0.01 lbs/A): 88.9%
- Control (1-9) Dandelion (dandelion; Test 1, 14 DAT, 0.01 lbs/A): 8
- % Control Dandelion (dandelion; Test 1, 14 DAT, 0.02 lbs/A): 100.0%
- Control (1-9) Dandelion (dandelion; Test 1, 14 DAT, 0.02 lbs/A): 9
- % Control Dandelion (dandelion; Test 1, 24 HAT, 0.01 lbs/A): 44.4%
- Control (1-9) Dandelion (dandelion; Test 1, 24 HAT, 0.01 lbs/A): 4
- % Control Dandelion (dandelion; Test 1, 24 HAT, 0.02 lbs/A): 33.3%
- Control (1-9) Dandelion (dandelion; Test 1, 24 HAT, 0.02 lbs/A): 3
- % Control Dandelion (dandelion; Test 1, 48 HAT, 0.01 lbs/A): 55.6%
- Control (1-9) Dandelion (dandelion; Test 1, 48 HAT, 0.01 lbs/A): 5
- % Control Dandelion (dandelion; Test 1, 48 HAT, 0.02 lbs/A): 55.6%
- Control (1-9) Dandelion (dandelion; Test 1, 48 HAT, 0.02 lbs/A): 5
- % Control Dandelion (dandelion; Test 4, 7 DAT, 0.01 lbs/A): 55.6%
- Control (1-9) Dandelion (dandelion; Test 4, 7 DAT, 0.01 lbs/A): 5
- % Control Dandelion (dandelion; Test 4, 7 DAT, 0.02 lbs/A): 88.9%
- Control (1-9) Dandelion (dandelion; Test 4, 7 DAT, 0.02 lbs/A): 8
- % Control Dandelion (dandelion; Test 4, 14 DAT, 0.01 lbs/A): 55.6%
- Control (1-9) Dandelion (dandelion; Test 4, 14 DAT, 0.01 lbs/A): 5
- % Control Dandelion (dandelion; Test 4, 14 DAT, 0.02 lbs/A): 88.9%
- Control (1-9) Dandelion (dandelion; Test 4, 14 DAT, 0.02 lbs/A): 8
- % Control Plantain (plantain; Test 4, 7 DAT, 0.01 lbs/A): 100.0%
- Control (1-9) Plantain (plantain; Test 4, 7 DAT, 0.01 lbs/A): 9
- % Control Plantain (plantain; Test 4, 7 DAT, 0.02 lbs/A): 88.9%
- Control (1-9) Plantain (plantain; Test 4, 7 DAT, 0.02 lbs/A): 8
- % Control Plantain (plantain; Test 4, 14 DAT, 0.01 lbs/A): 100.0%
- Control (1-9) Plantain (plantain; Test 4, 14 DAT, 0.01 lbs/A): 9
- % Control Plantain (plantain; Test 4, 14 DAT, 0.02 lbs/A): 88.9%
- Control (1-9) Plantain (plantain; Test 4, 14 DAT, 0.02 lbs/A): 8

Structure (SMILES): O=C(O)c1c(Cl)ccc2cc(Cl)cnc12 [Quinclorac @ 0.375 lbs/A]
- % Control Clover (white clover; Test 3, 7 DAT): 44.4%
- Control (1-9) Clover (white clover; [1]): 4
- % Control Clover (white clover; Test 3, 14 DAT): 55.6%
- Control (1-9) Clover (white clover; [2]): 5
- % Control Clover (white clover; Test 3, 21 DAT): 88.9%
- Control (1-9) Clover (white clover; [3]): 8
- % Control Clover (white clover; Test 3, 24 HAT): 11.1%
- Control (1-9) Clover (white clover; [4]): 1
- % Control Clover (white clover; Test 3, 72 HAT): 22.2%
- Control (1-9) Clover (white clover; [5]): 2
- % Control Clover (white clover; Test 4, 24 HAT): 11.1%
- Control (1-9) Clover (white clover; [6]): 1
- % Control Clover (white clover; Test 4, 72 HAT): 22.2%
- Control (1-9) Clover (white clover; [7]): 2
- % Control Crabgrass (crabgrass; Test 3, 7 DAT): 22.2%
- Control (1-9) Crabgrass (crabgrass; [1]): 2
- % Control Crabgrass (crabgrass; Test 3, 14 DAT): 44.4%
- Control (1-9) Crabgrass (crabgrass; [2]): 4
- % Control Crabgrass (crabgrass; Test 3, 21 DAT): 66.7%
- Control (1-9) Crabgrass (crabgrass; [3]): 6
- % Control Crabgrass (crabgrass; Test 3, 24 HAT): 11.1%
- Control (1-9) Crabgrass (crabgrass; [4]): 1
- % Control Crabgrass (crabgrass; Test 3, 72 HAT): 11.1%
- Control (1-9) Crabgrass (crabgrass; [5]): 1
- % Control Crabgrass (crabgrass; Test 4, 24 HAT): 11.1%
- Control (1-9) Crabgrass (crabgrass; [6]): 1
- % Control Crabgrass (crabgrass; Test 4, 72 HAT): 11.1%
- Control (1-9) Crabgrass (crabgrass; [7]): 1
- % Control Dandelion (dandelion; Test 3, 7 DAT): 22.2%
- Control (1-9) Dandelion (dandelion; [1]): 2
- % Control Dandelion (dandelion; Test 3, 14 DAT): 44.4%
- Control (1-9) Dandelion (dandelion; [2]): 4
- % Control Dandelion (dandelion; Test 3, 21 DAT): 55.6%
- Control (1-9) Dandelion (dandelion; [3]): 5
- % Control Dandelion (dandelion; Test 3, 24 HAT): 11.1%
- Control (1-9) Dandelion (dandelion; [4]): 1
- % Control Dandelion (dandelion; Test 3, 72 HAT): 22.2%
- Control (1-9) Dandelion (dandelion; [5]): 2
- % Control Dandelion (dandelion; Test 4, 24 HAT): 22.2%
- Control (1-9) Dandelion (dandelion; [6]): 2
- % Control Dandelion (dandelion; Test 4, 72 HAT): 22.2%
- Control (1-9) Dandelion (dandelion; [7]): 2
- % Control Plantain (plantain; Test 3, 7 DAT): 33.3%
- Control (1-9) Plantain (plantain; [1]): 3
- % Control Plantain (plantain; Test 3, 14 DAT): 44.4%
- Control (1-9) Plantain (plantain; [2]): 4
- % Control Plantain (plantain; Test 3, 21 DAT): 44.4%
- Control (1-9) Plantain (plantain; [3]): 4
- % Control Plantain (plantain; Test 3, 24 HAT): 11.1%
- Control (1-9) Plantain (plantain; [4]): 1
- % Control Plantain (plantain; Test 3, 72 HAT): 22.2%
- Control (1-9) Plantain (plantain; [5]): 2
- % Control Plantain (plantain; Test 4, 24 HAT): 11.1%
- Control (1-9) Plantain (plantain; [6]): 1
- % Control Plantain (plantain; Test 4, 72 HAT): 22.2%
- Control (1-9) Plantain (plantain; [7]): 2
